Measured values from article PMC4360378 (Journal of Medicinal Chemistry, 2015).

Legend:
[1] = Stability in HTS buffer by UPLC–MS; assay type: physicochemical; conditions: HTS buffer pH 8.0, UPLC–MS
human La antigen = biological target: T1, human La antigen (Homo sapiens, UniProt P05455); test: ALARM NMR; assay type: binding; conditions: for ALARM NMR reactivity: 200 μM test compounds, absence of DTT, prevented by 20 mM DTT; for La protein conformation in ALARM NMR: without the inclusion of DTT
T1 sequence (P05455 100-324): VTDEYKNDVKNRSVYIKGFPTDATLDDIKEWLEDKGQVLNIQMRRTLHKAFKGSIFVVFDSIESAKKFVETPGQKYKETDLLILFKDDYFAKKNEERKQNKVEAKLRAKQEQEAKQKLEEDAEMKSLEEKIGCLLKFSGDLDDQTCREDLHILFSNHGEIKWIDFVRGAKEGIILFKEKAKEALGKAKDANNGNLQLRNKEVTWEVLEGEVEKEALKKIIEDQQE

yeast Rtt109–Vps75 = biological target: T2, yeast Rtt109–Vps75 (Saccharomyces cerevisiae, UniProt Q07794); test: [3H]-acetyl-CoA HAT assay, Rtt109; assay type: biochemical; conditions: 1 mM DTT; results similar versus Rtt109-Vps75, p300, and Gcn5
T2 sequence (Q07794 1-436): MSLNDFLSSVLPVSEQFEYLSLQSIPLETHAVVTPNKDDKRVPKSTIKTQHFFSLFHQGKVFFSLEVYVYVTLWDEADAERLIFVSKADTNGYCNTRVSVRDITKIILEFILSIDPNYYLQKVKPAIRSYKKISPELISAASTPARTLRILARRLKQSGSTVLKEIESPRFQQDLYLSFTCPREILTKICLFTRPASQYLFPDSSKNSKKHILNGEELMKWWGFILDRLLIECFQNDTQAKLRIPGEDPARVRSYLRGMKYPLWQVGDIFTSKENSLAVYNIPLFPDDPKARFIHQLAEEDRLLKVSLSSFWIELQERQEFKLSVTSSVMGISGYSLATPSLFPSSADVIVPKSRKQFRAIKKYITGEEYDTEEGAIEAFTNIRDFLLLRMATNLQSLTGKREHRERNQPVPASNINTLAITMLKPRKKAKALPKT
T2 sequence (P53853 1-264 partner): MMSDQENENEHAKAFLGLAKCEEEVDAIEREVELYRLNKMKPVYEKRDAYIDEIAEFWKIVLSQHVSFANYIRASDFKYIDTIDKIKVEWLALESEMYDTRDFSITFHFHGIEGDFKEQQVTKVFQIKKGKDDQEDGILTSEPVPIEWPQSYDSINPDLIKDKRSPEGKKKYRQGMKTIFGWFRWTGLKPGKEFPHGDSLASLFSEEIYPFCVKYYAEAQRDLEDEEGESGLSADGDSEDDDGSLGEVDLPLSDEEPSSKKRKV

yeast Rtt109 = biological target: T3, yeast Rtt109 (Saccharomyces cerevisiae, UniProt Q07794); test: Protein mass spectrometry; assay type: binding; conditions: 100 μM compound, 10 μM protein, 30 °C, 60 min; LC–MS/MS
T3 sequence (Q07794 1-436): T2 sequence (Q07794 1-436)
T3 sequence (P53853 1-264 partner): T2 sequence (P53853 1-264 partner)

yeast Vps75 = biological target: T4, yeast Vps75 (Saccharomyces cerevisiae, UniProt P53853); test: Protein mass spectrometry; assay type: binding; conditions: 100 μM compound, 10 μM protein, 30 °C, 60 min; LC–MS/MS
T4 sequence (P53853 1-264): T2 sequence (P53853 1-264 partner)
T4 sequence (Q07794 1-436 partner): T2 sequence (Q07794 1-436)

Row | SMILES | ALARM NMR reactivity (human La antigen) | (+) DTT IC50 effect (yeast Rtt109–Vps75) | further results
1 | O=[N+]([O-])c1cc(Br)c2nsnc2c1Sc1ncnc2[nH]cnc12 [2a] | covalently modify cysteines | increase | stability in HTS buffer [1]: stable
2 | O=C(O)c1ccc(-n2nnnc2SC2=CS(=O)(=O)c3ccccc32)cc1 [1a] | covalently modify cysteines | increase | Peptide adduct detected, Rtt109 (yeast Rtt109): forms a detectable adduct with C94
3 | CNc1nc(-c2ccccc2)[n+](-c2ccccc2)s1.[Cl-] [3a] | covalently modify cysteines | – | –
4 | O=[N+]([O-])c1c(Sc2nnnn2-c2ccccc2)cc(Cl)c2nonc12 [2e] | – | increase | –
5 | O=C(O)CSc1cc(NS(=O)(=O)c2ccc(Br)cc2)c2ccccc2c1O [6y] | – | increase | –
6 | O=S(=O)(Nc1cc(Sc2ncn[nH]2)c(O)c2ccccc12)c1ccc2ccccc2c1 [6b] | covalently modify cysteines | – | La protein conformation in ALARM NMR (human La antigen): strongly perturbed
7 | O=C1CC(Sc2nnc(-c3ccccc3O)o2)C(=O)N1c1ccc(Br)cc1 (stereo not shown) [4a] | covalently modify cysteines | increase | stability in HTS buffer [1]: thiol leaving groups (e.g., 4a″) were detected
8 | OC(Cn1cncn1)(Cn1cncn1)c1ccc(F)cc1F [fluconazole, reference compound] | – | none | –
9 | O=S(=O)(Nc1cc(Cl)c(O)c2ccccc12)c1ccc(Br)cc1 [6e] | – | increase | –
10 | O=C(O)CSc1cc(NS(=O)(=O)c2ccc(C(=O)O)cc2)c2ccccc2c1O [6c] | – | increase | –
11 | CCN(CC)c1ccc2c(C)c(-c3ccc(N4C(=O)C=CC4=O)cc3)c(=O)oc2c1 [CPM, N-[4-(7-diethylamino-4-methylcoumarin-3-yl)phenyl]maleimide, reference compound] | – | increase | –
12 | O=C(O)CCSc1cc(NS(=O)(=O)c2ccc(Br)cc2)c2ccccc2c1O [6a] | covalently modify cysteines | increase | La protein conformation in ALARM NMR (human La antigen): strongly perturbed; Peptide adduct detected, Vps75 (yeast Vps75): forms a detectable adduct with mono-oxidized C21
